{
  "source": "patent US4461900A",
  "about": "“4,5-Dihydrothiadiazole 1,1-dioxide derivatives” (American Home Products Corporation, priority 1983, dated 1984)",
  "key": {"H2 receptor": {"test_system": "H2 receptor", "conditions": "cited from earlier work"}, "H2 -receptor": {"target": "T1, H2 -receptor (Cavia porcellus, UniProt P47747)", "T1 construct": "The right atria of Males Charles River guinea-pigs; from tissue; host or cells: isolated right atria of male Charles River guinea-pigs", "T1 sequence (P47747 whole entry)": "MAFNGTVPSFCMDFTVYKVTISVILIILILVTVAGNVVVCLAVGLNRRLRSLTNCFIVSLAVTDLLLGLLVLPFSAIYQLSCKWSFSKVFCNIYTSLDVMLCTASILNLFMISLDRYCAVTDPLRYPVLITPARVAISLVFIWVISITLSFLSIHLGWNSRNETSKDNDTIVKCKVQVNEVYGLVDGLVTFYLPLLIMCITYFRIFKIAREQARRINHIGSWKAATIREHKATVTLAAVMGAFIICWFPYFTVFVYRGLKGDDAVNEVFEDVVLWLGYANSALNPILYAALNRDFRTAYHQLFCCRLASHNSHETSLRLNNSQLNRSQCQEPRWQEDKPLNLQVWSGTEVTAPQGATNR", "experiment": "In vitro H2 antagonism: histamine-induced heart rate increase in isolated guinea-pig right atria", "assay_type": "cell-based", "conditions": "at 10^-4, 10^-5 M", "description": "The right atria of Males Charles River guinea-pigs (250-325 gm), trimmed of extraneous tissues is suspended in a bath at a 1.0 g tension load between an anchor and a Grass Model FT03 force displacement transducer which is coupled to a Beckman Dynograph recorder. The Krebs-Henseleit bath is oxygenated (95% O2 -5% CO2) and maintained at 32° C. After establishing a regular pattern of spontaneous activity over one hour, cumulative doses of histamine are introduced into the bath and the maximal heart rate increase recorded after each addition to establish a response control.\nThen the tissue is washed, returned to rest rates and the compound being treated is introduced into the bath. Thirty minutes later the histamine dose-response study is repeated. The response to histamine in the presence of an antagonist differs from that obtained in the absence of antagonist and the log of the ratio of differences is platted against the log concentration of antagonist for each of several concentrations from which the apparent dissociation constant (pA2) is calculated."}, "[1]": {"test_system": "histamine induced gastric acid secretion", "conditions": "dog; cited from earlier work"}},
  "data": [
    {"smiles": "C#CCNC(=NC#N)NCCSCc1nc[nH]c1C", "note": "[Etintidine]", "values": [
      {"measurement": "Potency as H2 -receptor antagonist relative to cimetidine", "setting": "H2 receptor", "value": "more potent than cimetidine"}
    ]},
    {"smiles": "CN(C)Cc1ccc(CSCCNC2=NS(=O)(=O)CN2)o1", "note": "[Example 1, N-[2-[[[5-[(DIMETHYLAMINO)METHYL]-2-FURANYL]METHYL]THIO]ETHYL]-4,5-DIHYDRO- 1,2,4-THIADIAZOL-3-AMINE 1,1-DIOXIDE]", "values": [
      {"measurement": "H2 antagonism (activity at stated concentrations)", "setting": "H2 -receptor", "value": "active"}
    ]},
    {"smiles": "CNC(=C[N+](=O)[O-])NCCSCc1ccc(CN(C)C)o1", "note": "[Ranitidine]", "values": [
      {"measurement": "Potency relative to cimetidine in blocking histamine induced gastric acid secretion", "setting": "[1]", "value": "about 5 times"}
    ]},
    {"smiles": "CNC(=NC#N)NCCSCc1csc(N=C(N)N)n1", "note": "[Tiotidine]", "values": [
      {"measurement": "Potency relative to cimetidine in H2 receptor antagonism", "setting": "H2 receptor; both in vitro and in vivo studies", "value": "at least ten"}
    ]}
  ]
}
